# Data taken from PubChem BioAssay (NCI).
#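 In this assay, cells in 96-well plates receive the compound at five concentrations for 48 hours. Endpoints are linearly interpolated between the surrounding concentrations. GI50: concentration for 50% inhibition of growth. TGI: total growth inhibition.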
# What was measured:
# Assay in all cases: NCI anticancer screen, dose series, 48 h
# 786-0 renal = tested on: 786-0 renal
# A498 renal = tested on: A498 renal
# A549 NSCLC = tested on: A549 NSCLC
# ACHN renal = tested on: ACHN renal
# BT-549 breast = tested on: BT-549 breast
# CAKI-1 renal = tested on: CAKI-1 renal
# CCRF-CEM leukemia = tested on: CCRF-CEM leukemia
# COLO 205 colon = tested on: COLO 205 colon
# DU-145 prostate = tested on: DU-145 prostate
# HCC-2998 colon = tested on: HCC-2998 colon
# HCT-116 colon = tested on: HCT-116 colon
# HCT-15 colon = tested on: HCT-15 colon
# HL-60(TB) leukemia = tested on: HL-60(TB) leukemia
# HOP-62 NSCLC = tested on: HOP-62 NSCLC
# HOP-92 NSCLC = tested on: HOP-92 NSCLC
# HS 578T breast = tested on: HS 578T breast
# HT29 colon = tested on: HT29 colon
# IGROV1 ovarian = tested on: IGROV1 ovarian
# K-562 leukemia = tested on: K-562 leukemia
# KM12 colon = tested on: KM12 colon
# LOX IMVI melanoma = tested on: LOX IMVI melanoma
# MCF7 breast = tested on: MCF7 breast
# MDA-MB-231 breast = tested on: MDA-MB-231 breast
# MOLT-4 leukemia = tested on: MOLT-4 leukemia
# NCI-H226 lung = tested on: NCI-H226 lung
# NCI-H23 lung = tested on: NCI-H23 lung
# NCI-H460 lung = tested on: NCI-H460 lung
# NCI-H522 lung = tested on: NCI-H522 lung
# NCI/ADR-RES ovarian = tested on: NCI/ADR-RES ovarian
# OVCAR-3 ovarian = tested on: OVCAR-3 ovarian
# OVCAR-4 ovarian = tested on: OVCAR-4 ovarian
# OVCAR-5 ovarian = tested on: OVCAR-5 ovarian
# OVCAR-8 ovarian = tested on: OVCAR-8 ovarian
# PC-3 prostate = tested on: PC-3 prostate
# RPMI-8226 leukemia = tested on: RPMI-8226 leukemia
# RXF 393 renal = tested on: RXF 393 renal
# SF-268 CNS = tested on: SF-268 CNS
# SF-295 CNS = tested on: SF-295 CNS
# SF-539 CNS = tested on: SF-539 CNS
# SK-MEL-2 melanoma = tested on: SK-MEL-2 melanoma
# SK-MEL-28 melanoma = tested on: SK-MEL-28 melanoma
# SK-MEL-5 melanoma = tested on: SK-MEL-5 melanoma
# SK-OV-3 ovarian = tested on: SK-OV-3 ovarian
# SN12C renal = tested on: SN12C renal
# SNB-19 CNS = tested on: SNB-19 CNS
# SNB-75 CNS = tested on: SNB-75 CNS
# SR leukemia = tested on: SR leukemia
# SW-620 colon = tested on: SW-620 colon
# T-47D breast = tested on: T-47D breast
# TK-10 renal = tested on: TK-10 renal
# U251 CNS = tested on: U251 CNS
# UACC-257 melanoma = tested on: UACC-257 melanoma
# UACC-62 melanoma = tested on: UACC-62 melanoma
# UO-31 renal = tested on: UO-31 renal
compound,measurement,setting,value
CC(=O)O[C@H]1C(=O)[C@@]2(C)C([C@H](OC(=O)c3ccccc3)[C@]3(O)C[C@H](OC(=O)[C@H](O)[C@@H](NC(=O)c4ccccc4)c4ccccc4)C(C)=C1C3(C)C)[C@]1(OC(C)=O)CO[C@@H]1C[C@@H]2O (some centres not stated),GI50,786-0 renal,46.5 nM
same,TGI,786-0 renal,> 50000 nM
same,GI50,A498 renal,16.1 nM
same,TGI,A498 renal,> 50000 nM
same,GI50,A549 NSCLC,< 5 nM
same,TGI,A549 NSCLC,> 50000 nM
same,GI50,ACHN renal,945 nM
same,TGI,ACHN renal,> 50000 nM
same,GI50,BT-549 breast,21.2 nM
same,TGI,BT-549 breast,> 50000 nM
same,TGI,CAKI-1 renal,> 50000 nM
same,GI50,CCRF-CEM leukemia,14.1 nM
same,TGI,CCRF-CEM leukemia,> 50000 nM
same,GI50,COLO 205 colon,< 5 nM
same,TGI,COLO 205 colon,24.6 nM
same,GI50,DU-145 prostate,6.73 nM
same,TGI,DU-145 prostate,27.2 nM
same,GI50,HCC-2998 colon,8.68 nM
same,GI50,HCT-116 colon,< 5 nM
same,TGI,HCT-116 colon,> 50000 nM
same,GI50,HCT-15 colon,382 nM
same,TGI,HCT-15 colon,> 50000 nM
same,GI50,HL-60(TB) leukemia,5.28 nM
same,TGI,HL-60(TB) leukemia,20.9 nM
same,TGI,HOP-62 NSCLC,> 50000 nM
same,GI50,HOP-92 NSCLC,54 nM
same,TGI,HOP-92 NSCLC,> 50000 nM
same,TGI,HS 578T breast,> 50000 nM
same,GI50,HT29 colon,< 5 nM
same,GI50,IGROV1 ovarian,410 nM
same,TGI,IGROV1 ovarian,> 50000 nM
same,GI50,K-562 leukemia,5.96 nM
same,TGI,K-562 leukemia,> 50000 nM
same,GI50,KM12 colon,< 5 nM
same,TGI,KM12 colon,> 50000 nM
same,GI50,LOX IMVI melanoma,5.13 nM
same,TGI,LOX IMVI melanoma,> 50000 nM
same,GI50,MCF7 breast,< 5 nM
same,TGI,MCF7 breast,> 50000 nM
same,GI50,MDA-MB-231 breast,34.3 nM
same,TGI,MDA-MB-231 breast,> 50000 nM
same,GI50,MOLT-4 leukemia,15.2 nM
same,TGI,MOLT-4 leukemia,> 37200 nM
same,GI50,NCI-H226 lung,18.9 nM
same,TGI,NCI-H226 lung,> 50000 nM
same,GI50,NCI-H23 lung,12.5 nM
same,TGI,NCI-H23 lung,> 50000 nM
same,GI50,NCI-H460 lung,< 5 nM
same,TGI,NCI-H460 lung,> 50000 nM
same,TGI,NCI-H522 lung,14.6 nM
same,GI50,NCI/ADR-RES ovarian,1810 nM
same,TGI,NCI/ADR-RES ovarian,41900 nM
same,GI50,OVCAR-3 ovarian,5.6 nM
same,TGI,OVCAR-3 ovarian,58.9 nM
same,GI50,OVCAR-4 ovarian,198 nM
same,TGI,OVCAR-4 ovarian,> 50000 nM
same,GI50,OVCAR-5 ovarian,22.6 nM
same,TGI,OVCAR-5 ovarian,> 50000 nM
same,GI50,OVCAR-8 ovarian,8.04 nM
same,TGI,OVCAR-8 ovarian,> 50000 nM
same,GI50,PC-3 prostate,12.9 nM
same,TGI,PC-3 prostate,> 50000 nM
same,GI50,RPMI-8226 leukemia,< 5 nM
same,TGI,RPMI-8226 leukemia,> 50000 nM
same,GI50,RXF 393 renal,5.16 nM
same,TGI,RXF 393 renal,38.2 nM
same,GI50,SF-268 CNS,21 nM
same,TGI,SF-268 CNS,> 50000 nM
same,GI50,SF-295 CNS,17.3 nM
same,TGI,SF-295 CNS,> 50000 nM
same,GI50,SF-539 CNS,8.72 nM
same,TGI,SF-539 CNS,> 50000 nM
same,GI50,SK-MEL-2 melanoma,14.9 nM
same,TGI,SK-MEL-2 melanoma,> 50000 nM
same,GI50,SK-MEL-28 melanoma,13.9 nM
same,TGI,SK-MEL-28 melanoma,> 50000 nM
same,GI50,SK-MEL-5 melanoma,7.85 nM
same,TGI,SK-MEL-5 melanoma,> 50000 nM
same,TGI,SK-OV-3 ovarian,> 50000 nM
same,GI50,SN12C renal,14.2 nM
same,TGI,SN12C renal,> 50000 nM
same,GI50,SNB-19 CNS,13.5 nM
same,TGI,SNB-19 CNS,> 50000 nM
same,GI50,SNB-75 CNS,< 5 nM
same,TGI,SNB-75 CNS,18.6 nM
same,GI50,SR leukemia,< 5 nM
same,TGI,SR leukemia,> 50000 nM
same,GI50,SW-620 colon,< 5 nM
same,TGI,SW-620 colon,> 50000 nM
same,GI50,T-47D breast,9.73 nM
same,TGI,T-47D breast,> 50000 nM
same,TGI,TK-10 renal,> 50000 nM
same,GI50,U251 CNS,11.1 nM
same,TGI,U251 CNS,> 50000 nM
same,GI50,UACC-257 melanoma,> 50000 nM
same,TGI,UACC-257 melanoma,> 50000 nM
same,GI50,UACC-62 melanoma,20.7 nM
same,TGI,UACC-62 melanoma,> 50000 nM
same,GI50,UO-31 renal,1410 nM
same,TGI,UO-31 renal,> 50000 nM
O=C(NCc1cccc(CNC(=O)Nc2nc3ccccc3[nH]2)c1)Nc1nc2ccccc2[nH]1,GI50,A498 renal,2070 nM
same,TGI,A498 renal,5110 nM
same,GI50,ACHN renal,4160 nM
same,TGI,ACHN renal,> 100000 nM
same,GI50,CAKI-1 renal,> 100000 nM
same,TGI,CAKI-1 renal,> 100000 nM
same,GI50,HCT-15 colon,> 100000 nM
same,TGI,HCT-15 colon,> 100000 nM
same,GI50,HL-60(TB) leukemia,> 100000 nM
same,TGI,HL-60(TB) leukemia,> 100000 nM
same,GI50,HOP-62 NSCLC,1950 nM
same,TGI,HOP-62 NSCLC,4920 nM
same,GI50,HOP-92 NSCLC,1250 nM
same,TGI,HOP-92 NSCLC,3260 nM
same,GI50,NCI/ADR-RES ovarian,> 100000 nM
same,TGI,NCI/ADR-RES ovarian,> 100000 nM
same,GI50,SK-MEL-2 melanoma,2360 nM
same,TGI,SK-MEL-2 melanoma,7100 nM
same,GI50,SNB-75 CNS,1580 nM
same,TGI,SNB-75 CNS,4180 nM
same,GI50,T-47D breast,3330 nM
same,TGI,T-47D breast,> 100000 nM
